Usually IC50 stands for the concentration at which inhibition is half-maximal. A higher IC50 goes with weaker potency in that assay. The IC90 is the concentration at which the effect reaches the 90% level.

Molecules are shown by their SMILES.

This experiment can be described thus: Inhibitory activity against HIV-1 replication in phytohemagglutininin-activated peripheral blood mononuclear (PHA-PBM) cells. It counts as functional, Homo sapiens.

`Nc1ccn(C=C=CCO)c(=O)n1` (stereo in doubt; 1b) had an IC50 of 800 nM and an IC90 of 3400 nM.

The compound `Nc1ccn(C=C=CCO)c(=O)n1` (stereo in doubt; 2b) showed an IC50 of 400 nM. The compound also registered an IC90 (Homo sapiens) of 1700 nM.

Compound `Nc1ccn(C=C=CCO)c(=O)n1` (stereo in doubt; 3c) showed an IC50 of more than 10000 nM.
